The values below come from EP4342530A1, “SORTILIN MODULATORS” (Insusense ApS, priority 2022, dated 2024).

For this assay, the target named is T1, Sortilin (Homo sapiens, UniProt Q99523).
T1 construct: purchased Bio-Techne Ltd 3154-ST-050
T1 sequence (Q99523 78-755 limits assumed): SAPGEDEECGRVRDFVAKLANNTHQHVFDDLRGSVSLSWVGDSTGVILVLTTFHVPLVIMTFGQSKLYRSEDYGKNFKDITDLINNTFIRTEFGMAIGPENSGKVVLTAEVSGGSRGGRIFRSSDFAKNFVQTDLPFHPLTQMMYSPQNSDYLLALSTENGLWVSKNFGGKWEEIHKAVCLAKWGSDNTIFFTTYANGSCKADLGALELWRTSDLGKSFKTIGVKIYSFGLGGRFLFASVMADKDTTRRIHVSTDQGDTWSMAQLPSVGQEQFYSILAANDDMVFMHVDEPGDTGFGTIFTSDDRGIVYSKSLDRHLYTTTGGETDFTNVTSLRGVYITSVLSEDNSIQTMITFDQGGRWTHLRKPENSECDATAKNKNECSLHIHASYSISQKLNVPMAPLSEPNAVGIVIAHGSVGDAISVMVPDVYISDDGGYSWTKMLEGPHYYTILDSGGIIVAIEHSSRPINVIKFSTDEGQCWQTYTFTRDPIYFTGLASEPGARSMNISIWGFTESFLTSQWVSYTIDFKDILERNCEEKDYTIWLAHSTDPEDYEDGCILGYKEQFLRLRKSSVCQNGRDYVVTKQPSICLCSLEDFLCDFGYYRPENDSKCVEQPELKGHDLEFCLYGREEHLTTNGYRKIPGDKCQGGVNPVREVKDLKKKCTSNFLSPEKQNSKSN
Briefly: Creoptix (GCI) binding kinetics, human Sortilin. The note with it: Species Human, screened at 1 µM, 25 degrees Celsius. In a few lines: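 Grating-coupled interferometry at 25 °C with amine-coupled recombinant human or mouse Sortilin, running buffer HBS-N pH 7.4, 3.4 mM EDTA, 1% DMSO. Compounds injected at 1 µM (1% DMSO) at 100 µl/min, 25 s association, 300 s dissociation; kon, koff and Kd from a 1:1 kinetic model.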

For `CC(C)(C)CC[C@H](NCc1ccc2c(c1)COCC2)C(=O)O` [Example 3, (S)-2-((isochroman-7-ylmethyl)amino)-5,5-dimethylhexanoic acid], the Kd (usually the constant that tells how readily two partners part at equilibrium) reads like this: (Form of Compound Free acid) 0.237 µM; (Form of Compound Mesylate salt) 0.052 µM.

For `C[C@@H](N[C@@H](CCC(C)(C)C)C(=O)O)c1ccc2c(c1)CCCO2` [Example 52], the Kd is, setting by setting: (Form of Compound Free acid) 0.384 µM; (Form of Compound Mesylate salt) 0.133 µM.

For `C[C@H](N[C@@H](CCC(C)(C)C)C(=O)O)c1ccc2c(c1)CCCO2` [Example 50], the Kd (Form of Compound Free acid) was found to be 0.12 µM and the dissociation constant (Kd) (Form of Compound Mesylate salt) turned out to be 0.221 µM.

As for `C[C@@H](N[C@@H](CCC(C)(C)C)C(=O)O)c1ccc2c(c1)OCCC2` [Example 9], the dissociation constant (Kd) is 0.227 µM (Form of Compound Free acid) and 0.0649 µM (Form of Compound Mesylate salt).
